Experimental data as given in ChEMBL document CHEMBL1150830, “Polychlorinated acetamides from the cyanobacterium Microcoleus lyngbyaceus” (J Nat Prod, 2001).
Activity calls are given as the source filed them. The rule behind the calls is not given here.

System: Human immunodeficiency virus 1
Test: Antiviral activity against HIV1 infected in human H9 cells assessed as inhibition of virus-induced cytopathic effect by tetrazolium-based method
Assay type: functional, organism-based

SMILES | Activity
CC(=O)NC(CCCC#CCC(Cl)Cl)CCCC#CCC(Cl)(Cl)Cl (configuration not stated) | inactive
CC(=O)NC(CCCC#CCC(Cl)(Cl)Cl)CCCC#CCC(Cl)(Cl)Cl | inactive
